ChEMBL document CHEMBL3997821, “Design, synthesis and evaluation of novel pyrazolo-pyrimido[4,5-d]pyrimidine derivatives as potent antibacterial and biofilm inhibitors” (Bioorg Med Chem Lett, 2017)
Values after ≈ are worked out from the molar mass of the structure shown. Active and inactive are the calls of the source. The calls are words filed in the database; no cut-off is given here.

Experiments:
Micrococcus luteus [1] = experiment: Antibiofilm activity against Micrococcus luteus MTCC 2470 after 24 hrs by crystal violet staining based assay; type: functional; details: MTCC 2470, 24 h
Staphylococcus aureus [2] = experiment: Bactericidal activity against Staphylococcus aureus MTCC 96 after 24 hrs by serial dilution method; type: functional; details: MTCC 96, 24 h
Staphylococcus aureus [3] = experiment: Antibiofilm activity against Staphylococcus aureus MTCC 96 after 24 hrs by crystal violet staining based assay; type: functional; details: MTCC 96, 24 h
Staphylococcus aureus [4] = experiment: Antibacterial activity against Staphylococcus aureus MTCC 96 after 24 hrs by well diffusion method; type: functional; details: MTCC 96, 24 h
Bacillus subtilis [5] = experiment: Bactericidal activity against Bacillus subtilis MTCC 121 after 24 hrs by serial dilution method; type: functional; details: MTCC 121, 24 h
Staphylococcus aureus [6] = experiment: Antibiofilm activity against Staphylococcus aureus MLS16 MTCC 2940 after 24 hrs by crystal violet staining based assay; type: functional; details: MLS16 MTCC 2940, 24 h
Staphylococcus aureus [7] = experiment: Ratio of MBC to MIC for Staphylococcus aureus MTCC 96; type: functional
Micrococcus luteus [8] = experiment: Induction of membrane permeability in Micrococcus luteus MTCC 2470 assessed as protein leakage at 1 to 2 times antibacterial MIC after 12 to 24 hrs by Bradford protein assay; type: functional
Micrococcus luteus [9] = experiment: Antibacterial activity against Micrococcus luteus MTCC 2470 after 24 hrs by well diffusion method; type: functional; details: MTCC 2470, 24 h
Micrococcus luteus [10] = experiment: Induction of intracellular ROS accumulation in Micrococcus luteus MTCC 2470 sessile biofilm cells at 0.5 to 4 ug/ml after 24 hrs by DCFH-DA staining-based assay; type: functional, cell-based
Micrococcus luteus [11] = experiment: Bactericidal activity against Micrococcus luteus MTCC 2470 after 24 hrs by serial dilution method; type: functional; details: MTCC 2470, 24 h
Bacillus subtilis [12] = experiment: Antibiofilm activity against Bacillus subtilis MTCC 121 after 24 hrs by crystal violet staining based assay; type: functional; details: MTCC 121, 24 h
Staphylococcus aureus [13] = experiment: Bactericidal activity against Staphylococcus aureus MLS16 MTCC 2940 after 24 hrs by serial dilution method; type: functional; details: MLS16 MTCC 2940, 24 h
Raoultella planticola = experiment: Antibacterial activity against Klebsiella planticola MTCC 530 after 24 hrs by well diffusion method; type: functional; details: MTCC 530, 24 h
Micrococcus luteus [14] = experiment: Induction of membrane permeability in Micrococcus luteus MTCC 2470 assessed as protein leakage at 1 to 2 times antibacterial MIC up to 12 hrs by Bradford protein assay; type: functional
Escherichia coli = experiment: Antibacterial activity against Escherichia coli MTCC 739 after 24 hrs by well diffusion method; type: functional; details: MTCC 739, 24 h
Micrococcus luteus [15] = experiment: Ratio of MBC to MIC for Micrococcus luteus MTCC 2470; type: functional
Bacillus subtilis [16] = experiment: Antibacterial activity against Bacillus subtilis MTCC 121 after 24 hrs by well diffusion method; type: functional; details: MTCC 121, 24 h
Pseudomonas aeruginosa = experiment: Antibacterial activity against Pseudomonas aeruginosa MTCC 2453 after 24 hrs by well diffusion method; type: functional; details: MTCC 2453, 24 h
Staphylococcus aureus [17] = experiment: Antibacterial activity against Staphylococcus aureus MLS16 MTCC 2940 after 24 hrs by well diffusion method; type: functional; details: MLS16 MTCC 2940, 24 h
Micrococcus luteus [18] = experiment: Induction of ROS generation in Micrococcus luteus MTCC 2470 mature biofilms at 0.5 to 2 ug/ml after 24 hrs by DCFH-DA staining based fluorometric assay; type: functional

**Q.** Which results are given for `Cc1ccc(-c2nn(-c3ccccc3)cc2C2c3c(n(C)c(=O)n(C)c3=O)N=CN2c2ccc(Cl)cc2)cc1` (stereo unspecified)?
**A.** IC50 (Micrococcus luteus [1]): 1.8 µg/mL (≈ 3.35 µM); MBC (Staphylococcus aureus [2]): 7.8 µg/mL (≈ 14.5 µM); IC50 (Staphylococcus aureus [3]): 3.9 µg/mL (≈ 7.26 µM); MIC (Staphylococcus aureus [4]): 7.8 µg/mL (≈ 14.5 µM); MBC (Bacillus subtilis [5]): 7.8 µg/mL (≈ 14.5 µM); IC50 (Staphylococcus aureus [6]): 4.4 µg/mL (≈ 8.19 µM); Ratio (Staphylococcus aureus [7]): 2; Activity (Micrococcus luteus [8]): Active; MIC (Micrococcus luteus [9]): 3.9 µg/mL (≈ 7.26 µM); Activity (Micrococcus luteus [10]): Active; MBC (Micrococcus luteus [11]): 15.6 µg/mL (≈ 29 µM); IC50 (Bacillus subtilis [12]): 4.1 µg/mL (≈ 7.63 µM); MBC (Staphylococcus aureus [13]): 31.2 µg/mL (≈ 58.1 µM); MIC (Raoultella planticola): > 125 µg/mL; Activity (Micrococcus luteus [14]): inactive; MIC (Escherichia coli): > 125 µg/mL; Ratio (Micrococcus luteus [15]): 2; MIC (Bacillus subtilis [16]): 7.8 µg/mL (≈ 14.5 µM); MIC (Pseudomonas aeruginosa): > 125 µg/mL; MIC (Staphylococcus aureus [17]): 7.8 µg/mL (≈ 14.5 µM); Activity (Micrococcus luteus [18]): Active
